From ChEMBL document CHEMBL4190401, “Lung cancer and matrix metalloproteinases inhibitors of polyphenols from Selaginella tamariscina with suppression activity of migration” (Bioorg Med Chem Lett, 2018)
pIC50, pKd: −log10 of the molar value. Activity calls are given as the source filed them. The rule behind the calls is not given here.

Experiments:
MGC-803 = test: Cytotoxicity against human MGC803 cells assessed as reduction in cell viability after 48 hrs by MTT assay; format: functional, cell-based; conditions: MGC-803, 48 h
[1] = target: T1, Matrix metalloproteinase-9 (Homo sapiens, UniProt P14780); test: Inhibition of recombinant human MMP9 preincubated for 30 mins followed by McaPro-Leu-Gly-Leu-Dpa-Ala-Arg-NH2 substrate addition measured by fluorescence assay
T1 sequence (P14780 whole entry): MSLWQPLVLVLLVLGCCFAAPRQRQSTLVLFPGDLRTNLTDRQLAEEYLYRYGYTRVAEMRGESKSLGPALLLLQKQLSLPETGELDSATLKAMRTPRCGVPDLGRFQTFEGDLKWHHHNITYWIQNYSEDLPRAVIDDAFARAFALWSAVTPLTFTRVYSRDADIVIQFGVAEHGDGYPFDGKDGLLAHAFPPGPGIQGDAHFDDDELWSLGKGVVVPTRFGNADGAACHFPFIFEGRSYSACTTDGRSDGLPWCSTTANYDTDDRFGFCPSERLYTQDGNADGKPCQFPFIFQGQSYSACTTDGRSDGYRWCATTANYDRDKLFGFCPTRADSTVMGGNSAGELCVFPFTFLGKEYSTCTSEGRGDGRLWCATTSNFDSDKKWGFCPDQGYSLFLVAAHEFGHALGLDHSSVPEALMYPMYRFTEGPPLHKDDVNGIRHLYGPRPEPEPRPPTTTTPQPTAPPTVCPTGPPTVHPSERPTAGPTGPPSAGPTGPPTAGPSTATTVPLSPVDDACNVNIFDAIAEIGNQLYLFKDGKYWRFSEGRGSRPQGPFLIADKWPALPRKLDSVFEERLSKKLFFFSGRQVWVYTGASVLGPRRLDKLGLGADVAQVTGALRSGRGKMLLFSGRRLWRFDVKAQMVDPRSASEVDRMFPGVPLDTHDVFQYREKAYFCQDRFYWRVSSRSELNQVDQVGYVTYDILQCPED

T-24 = test: Cytotoxicity against human T24 cells assessed as reduction in cell viability after 48 hrs by MTT assay; format: functional, cell-based; conditions: T-24, 48 h
HepG2 = test: Cytotoxicity against human HepG2 cells assessed as reduction in cell viability after 48 hrs by MTT assay; format: functional, cell-based; conditions: HepG2, 48 h
[2] = target: 72 kDa type IV collagenase (Homo sapiens, UniProt P08253); test: Inhibition of recombinant human MMP2 preincubated for 30 mins followed by McaPro-Leu-Gly-Leu-Dpa-Ala-Arg-NH2 substrate addition measured by fluorescence assay
Sequence of 72 kDa type IV collagenase (P08253 whole entry): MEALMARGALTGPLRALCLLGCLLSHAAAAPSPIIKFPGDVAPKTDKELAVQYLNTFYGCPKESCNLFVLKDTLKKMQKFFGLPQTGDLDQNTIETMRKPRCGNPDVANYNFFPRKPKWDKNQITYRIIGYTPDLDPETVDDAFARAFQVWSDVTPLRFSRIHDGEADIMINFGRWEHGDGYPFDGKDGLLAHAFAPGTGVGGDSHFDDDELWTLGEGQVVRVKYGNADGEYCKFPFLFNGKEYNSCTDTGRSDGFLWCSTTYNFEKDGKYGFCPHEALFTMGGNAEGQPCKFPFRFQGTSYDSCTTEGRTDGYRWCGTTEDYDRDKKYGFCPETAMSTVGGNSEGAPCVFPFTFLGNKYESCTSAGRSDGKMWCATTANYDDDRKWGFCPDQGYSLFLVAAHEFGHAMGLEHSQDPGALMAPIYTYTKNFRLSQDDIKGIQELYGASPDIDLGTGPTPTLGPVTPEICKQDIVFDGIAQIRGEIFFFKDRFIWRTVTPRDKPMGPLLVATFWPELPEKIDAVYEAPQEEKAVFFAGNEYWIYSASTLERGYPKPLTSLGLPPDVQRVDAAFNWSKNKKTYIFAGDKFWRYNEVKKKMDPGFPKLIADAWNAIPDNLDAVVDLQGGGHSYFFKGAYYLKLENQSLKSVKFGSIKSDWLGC

A549 [3] = test: Cytotoxicity against human A549 cells assessed as reduction in cell viability after 48 hrs by MTT assay; format: functional, cell-based; conditions: A549, 48 h
Stromelysin-1 = Stromelysin-1 (Homo sapiens, UniProt P08254); test: Inhibition of recombinant human MMP3 preincubated for 30 mins followed by McaPro-Leu-Gly-Leu-Dpa-Ala-Arg-NH2 substrate addition measured by fluorescence assay; conditions: for pIC50: read-out: IC50
Sequence of Stromelysin-1 (P08254 whole entry): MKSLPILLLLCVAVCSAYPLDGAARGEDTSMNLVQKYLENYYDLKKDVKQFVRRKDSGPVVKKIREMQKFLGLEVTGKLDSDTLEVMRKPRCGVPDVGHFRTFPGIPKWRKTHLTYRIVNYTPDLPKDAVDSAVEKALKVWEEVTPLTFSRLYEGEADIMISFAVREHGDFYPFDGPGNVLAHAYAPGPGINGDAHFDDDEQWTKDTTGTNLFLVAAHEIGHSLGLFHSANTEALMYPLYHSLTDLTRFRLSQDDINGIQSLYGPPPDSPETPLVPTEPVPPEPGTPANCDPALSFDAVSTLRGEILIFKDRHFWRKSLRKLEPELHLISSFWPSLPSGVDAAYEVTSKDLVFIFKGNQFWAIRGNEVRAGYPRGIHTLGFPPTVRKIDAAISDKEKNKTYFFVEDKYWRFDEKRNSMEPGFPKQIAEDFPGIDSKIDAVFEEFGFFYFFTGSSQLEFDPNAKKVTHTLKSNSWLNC

A549 [4] = test: Induction of apoptosis in human A549 cells assessed as early apoptotic cells at 10 uM after 24 hrs by Annexin V-FITC/propidium iodide staining based flow cytometry (reference value: 1.2%); format: functional
A549 [5] = test: Induction of apoptosis in human A549 cells at 10 to 40 uM after 24 hrs by acridine orange/ethidium bromide double staining based fluorescence microscopic method; format: functional, cell-based
A549 [6] = test: Induction of apoptosis in human A549 cells assessed as live cells at 20 uM after 24 hrs by Annexin V-FITC/propidium iodide staining based flow cytometry (reference value: 91.9%); format: functional
A549 [7] = test: Antimigratory activity against human A549 cells assessed as inhibition of wound healing at 10 to 20 uM after 24 hrs by phase contrast microscopic method; format: functional, cell-based
A549 [8] = test: Induction of apoptosis in human A549 cells assessed as decrease in Bcl-2 level at 10 to 40 uM after 24 hrs by Western blot method; format: functional, cell-based
A549 [9] = test: Induction of apoptosis in human A549 cells assessed as late apoptotic cells at 20 uM after 24 hrs by Annexin V-FITC/propidium iodide staining based flow cytometry (reference value: 2.8%); format: functional
A549 [10] = test: Induction of apoptosis in human A549 cells assessed as increase in Bax level after 24 hrs by Western blot method; format: functional, cell-based
A549 [11] = test: Induction of apoptosis in human A549 cells assessed as late apoptotic cells at 40 uM after 24 hrs by Annexin V-FITC/propidium iodide staining based flow cytometry (reference value: 2.8%); format: functional
A549 [12] = test: Induction of apoptosis in human A549 cells assessed as increase in caspase-3 level after 24 hrs by Western blot method; format: functional, cell-based
A549 [13] = test: Induction of apoptosis in human A549 cells assessed as late apoptotic cells at 10 uM after 24 hrs by Annexin V-FITC/propidium iodide staining based flow cytometry (reference value: 2.8%); format: functional
A549 [14] = test: Induction of apoptosis in human A549 cells assessed as live cells at 40 uM after 24 hrs by Annexin V-FITC/propidium iodide staining based flow cytometry (reference value: 91.9%); format: functional
A549 [15] = test: Induction of apoptosis in human A549 cells after 24 hrs by Annexin V-FITC/propidium iodide staining based flow cytometry; format: functional, cell-based
A549 [16] = test: Induction of apoptosis in human A549 cells assessed as early apoptotic cells at 40 uM after 24 hrs by Annexin V-FITC/propidium iodide staining based flow cytometry (reference value: 1.2%); format: functional
A549 [17] = test: Induction of apoptosis in human A549 cells assessed as live cells at 10 uM after 24 hrs by Annexin V-FITC/propidium iodide staining based flow cytometry (reference value: 91.9%); format: functional
[18] = target: T1, Matrix metalloproteinase-9; test: Binding affinity to MMP9 (unknown origin) by SPR assay
A549 [19] = test: Induction of apoptosis in human A549 cells assessed as increase in caspase-9 level at 10 to 40 uM after 24 hrs by Western blot method; format: functional, cell-based
A549 [20] = test: Induction of apoptosis in human A549 cells assessed as early apoptotic cells at 20 uM after 24 hrs by Annexin V-FITC/propidium iodide staining based flow cytometry (reference value: 1.2%); format: functional

| pIC50 [1] | pIC50 [2] | pIC50 (Stromelysin-1) | SMILES | pIC50 (MGC-803) | pIC50 (T-24) | pIC50 (HepG2) | pIC50 (A549 [3]) | other results |
| --- | --- | --- | --- | --- | --- | --- | --- | --- |
| 4.53 | 4.34 | 4.13 | COc1ccc(C2CC(=O)c3c(O)cc(O)cc3O2)cc1-c1c(O)cc(O)c2c(=O)cc(-c3ccc(O)cc3)oc12 (stereo not given) | 4.44 | 4.46 | 4.46 | 4.51 | – |
| < 4.00 | 4.27 | 4.18 | O=C(c1ccc(O)cc1)c1cc(-c2ccc(O)cc2)c(-c2ccc(O)cc2)c(-c2ccc(O)cc2)c1 | < 4.30 | < 4.30 | < 4.30 | < 4.30 | – |
| 4.44 | 4.09 | 4.39 | O=C1OCc2ccc(-c3ccc(O)cc3)c(C(=O)c3ccc(O)cc3)c21 | 4.58 | 4.63 | 4.61 | 4.66 | – |
| 4.59 | 4.45 | – | COc1ccc(C2CC(=O)c3c(O)cc(O)cc3O2)cc1-c1c(O)cc2c(c1O)C(=O)CC(c1ccc(O)cc1)O2 (stereo not given) | 4.58 | 4.56 | 4.55 | 4.56 | IC50 (Stromelysin-1): Not Active |
| 4.99 | < 4.00 | < 4.00 | COc1ccc(-c2cc(=O)c3c(O)cc(O)cc3o2)cc1-c1c(O)cc(O)c2c(=O)cc(-c3ccc(O)cc3)oc12 [BILOBETIN] | < 4.30 | < 4.30 | < 4.30 | < 4.30 | – |
| 4.93 | 4.99 | – | O=c1cc(-c2ccc(O)c(-c3c(O)cc4oc(-c5ccc(O)cc5)cc(=O)c4c3O)c2)oc2cc(O)cc(O)c12 [ROBUSTAFLAVONE] | 4.81 | 4.68 | 4.72 | 4.67 | IC50 (Stromelysin-1): Not Active |
| 4.74 | 4.27 | 4.06 | O=C1OC(c2ccc(O)cc2)(c2ccc(O)cc2)c2c(-c3ccc(O)cc3)ccc(CO)c21 | 4.86 | 4.90 | 4.81 | 4.96 | – |
| 4.39 | 4.07 | 4.08 | O=C(O)c1c(-c2ccc(O)cc2)ccc(CO)c1C#Cc1ccc(O)cc1 | 4.49 | 4.43 | 4.52 | 4.47 | – |
| 4.43 | < 4.00 | – | COc1ccc(-c2cc(=O)c3c(O)cc(O)cc3o2)cc1-c1c(O)cc2c(c1O)C(=O)CC(c1ccc(O)cc1)O2 (stereo not given) | < 4.30 | < 4.30 | < 4.30 | < 4.30 | IC50 (Stromelysin-1): Not Active |
| – | – | – | CC[C@@]1(O)C(=O)OCc2c1cc1n(c2=O)Cc2cc3cc(O)ccc3nc2-1 [HYDROXYCAMPTOTHECIN] | 5.18 | 4.93 | 5.50 | 5.76 | – |
| 4.61 | < 4.00 | < 4.00 | O=C(/C=C(\c1ccccc1)c1c(-c2ccc(O)cc2)cccc1-c1ccc(O)cc1)c1ccc(O)cc1 | < 4.30 | < 4.30 | < 4.30 | < 4.30 | – |
| 5.59 | 4.52 | < 4.00 | O=c1cc(-c2ccc(O)c(-c3c(O)cc(O)c4c(=O)cc(-c5ccc(O)cc5)oc34)c2)oc2cc(O)cc(O)c12 [AMENTOFLAVONE] | 5.01 | 4.97 | 5.04 | 5.08 | Activity (A549 [4]): 2.5%; Activity (A549 [5]): Active; Activity (A549 [6]): 59%; Activity (A549 [7]): Active; Activity (A549 [8]): Active; Activity (A549 [9]): 28.3%; Activity (A549 [10]): Dose-dependent effect; Activity (A549 [11]): 34.3%; Activity (A549 [12]): Dose-dependent effect; Activity (A549 [13]): 7.9%; Activity (A549 [14]): 57.2%; Activity (A549 [15]): Dose-dependent effect; Activity (A549 [16]): 6.4%; Activity (A549 [17]): 86%; pKd [18]: 5.66; Activity (A549 [19]): Active; Activity (A549 [20]): 9.5% |
| 4.58 | < 4.00 | 4.43 | COc1ccc(-c2cc(=O)c3c(O)cc(O)cc3o2)cc1-c1c(O)cc2oc(-c3ccc(O)cc3)cc(=O)c2c1O | 4.66 | 4.59 | 4.58 | 4.59 | – |
